Measured values reported in patent publication EP3030673B1, “SCREENING AND IDENTIFICATION OF RESISTANT MARKERS IN CRUSTACEAN” (priority 2013, dated 2015).
Read-outs that look alike come from different tables or passages of the source.

Legend:
[1] = system: LsHybridG (LsGulen as its maternal strain); assay type: in vivo, Lepeophtheirus salmonis
Procedure: In order to hybridise the lice strains for the inheritance experiment, the parental strains were first synchronised and multiplied up in numbers by simultaneously infecting 20 Atlantic salmon with copepods. In total, 1000 copepods per strain were added. At 32 days post infection (dpi), all salmon were anaesthetised and approximately half of the lice were carefully removed using tweezers. At this stage, lice were predominantly preadult 2 females and adult males, with a few percent adult females and preadult 2 males. The lice removed from the salmon were sexed, and then used to create the reciprocal hybrid strains. This was achieved by combining 4-5 females from the resistant strain and 4-5 males from the sensitive strain (LsHybridV), and 4-5 females from the sensitive strain and 4-5 males from the resistant strain (LsHybridG). Only preadult 2 females were used. These combinations were each placed into 2 replicate tanks in order to make two hybrid strains (4 groups and 8 tanks at this stage). At 67-68 dpi, all lice were removed from the four strains. Egg strings were removed from adult females and incubated in containers containing a single strain each. The number of adult lice, and harvested egg strings varied, but all were incubated (Table 2). Table 2. Number of egg strings collected from each strain. Egg strings from replicate tanks were pooled. Most egg strings were part of a pair.
The subsequent generation (F2, Fig. 2) were both produced using the general procedure described above, although the hybrid strains were only crossed back to themselves to create multiple generation-hybrids. Collection of egg strings, which marked the establishment of a new generation, was done at 55 and 56 dpi respectively. Salmon that hosted the previous generation were re-used for reinfection with the next generation, but hosted only the same experimental strain.
(§1) Each strain, including both types of hybrids obtained in example 1 were quantified in their tolerance of deltamethrin at sampling points 1 and 2 representing the F1 and F2 generations for the hybrids (Fig. 1 and 2). Bioassays were performed according to standard guidelines (SEARCH Consortium, 2006, Sea lice resistance to chemotherapeutants: A handbook in resistance management. 2 ed.), with minor modifications. Only adult male lice were used for the bioassay, which after sampling (at 55 or 56 dpi) had been incubated overnight in running seawater (ca. 10 °C). The 30 min exposure to the prepared deltamethrin concentration was also carried out at ca. 10 °C, and higher concentrations than those described in the given protocol were included (Table S3). After exposure to deltamethrin, the lice were kept in running seawater (24 h at ca. 10 °C) until evaluation of the bioassays. […] EC50 values were calculated using probit analysis (PoloPlus 2.0; LeOra Software, CA, USA). Table 3a. Deltamethrin bioassays performed on sampling set 1

[2] = system: LsVikna (pyrethroid resistant strain); experiment: Deltamethrin bioassay on adult male sea lice, pyrethroid resistant strain; assay type: in vivo, Lepeophtheirus salmonis
Source text: In order to investigate the inheritance and mechanism of pyrethroid resistance in L. salmonis, two strains (sensitive and resistant) and their reciprocal hybrids were used for a two-generation breeding experiment complimented with bioassays to measure tolerance (Fig. 2). The pyrethroid sensitive strain (hereon also referred to as LsGulen) was collected in June 2006 from newly slaughtered rainbow trout from Gulen in western Norway. The pyrethroid resistant strain (hereon also referred to as LsVikna) was collected in February 2009 from a salmon farm in Vikna, North Trøndelag, Norway. The resistant strain was collected on the basis of suspected reduced sensitivity to pyrethroids due to the fact that there had been reported a treatment failure on the farm from which it was collected. This was subsequently confirmed in bioassays with LsGulen as sensitive control.
as §1, with “Deltamethrin bioassays performed on sampling set 1” left out

CC1(C)[C@H](C(=O)O[C@H](C#N)c2cccc(Oc3ccccc3)c2)[C@@H]1C=C(Br)Br [Deltamethrin, deltamethrin]
mortality ([1]; above 1 ppb, maternal hybrid strain of the sensitive strain): 100% | % Inactive ([1]; sampling set 1, F1, fish tank 01, dose 0.1 ppb): 0% | % Inactive ([1]; sampling set 1, F1, fish tank 01, dose 0.3 ppb): 21% | % Inactive ([1]; sampling set 1, F1, fish tank 01, dose 1 ppb): 100% | % Inactive ([1]; sampling set 1, F1, fish tank 01, dose 3 ppb): 100% | % Inactive ([1]; sampling set 1, F1, fish tank 01, dose 6 ppb): 100% | % Inactive ([1]; sampling set 1, F1, fish tank 01, dose 12 ppb): 100% | % Inactive ([1]; sampling set 1, F1, fish tank 07, dose 0.1 ppb): 18% | % Inactive ([1]; sampling set 1, F1, fish tank 07, dose 0.3 ppb): 32% | % Inactive ([1]; sampling set 1, F1, fish tank 07, dose 1 ppb): 100% | % Inactive ([1]; sampling set 1, F1, fish tank 07, dose 3 ppb): 100% | % Inactive ([1]; sampling set 1, F1, fish tank 07, dose 6 ppb): 100% | % Inactive ([1]; sampling set 1, F1, fish tank 07, dose 12 ppb): 100% | % Inactive ([1]; sampling set 2, F2, fish tank 07, dose 0.1 ppb): 0% | % Inactive ([1]; sampling set 2, F2, fish tank 07, dose 0.3 ppb): 50% | % Inactive ([1]; sampling set 2, F2, fish tank 07, dose 0.5 ppb): 85% | % Inactive ([1]; sampling set 2, F2, fish tank 07, dose 1 ppb): 90% | % Inactive ([1]; sampling set 2, F2, fish tank 07, dose 3 ppb): 100% | % Inactive ([1]; sampling set 2, F2, fish tank 07, dose 6 ppb): 100% | % Inactive ([1]; sampling set 2, F2, fish tank 07, dose 12 ppb): 100% | % Inactive ([1]; sampling set 2, F2, fish tank 07, dose 20 ppb): 100% | % Inactive ([1]; sampling set 2, F2, fish tank 10, dose 0.1 ppb): 5% | % Inactive ([1]; sampling set 2, F2, fish tank 10, dose 0.3 ppb): 43% | % Inactive ([1]; sampling set 2, F2, fish tank 10, dose 0.5 ppb): 72% | % Inactive ([1]; sampling set 2, F2, fish tank 10, dose 1 ppb): 100% | % Inactive ([1]; sampling set 2, F2, fish tank 10, dose 3 ppb): 100% | % Inactive ([1]; sampling set 2, F2, fish tank 10, dose 6 ppb): 100% | % Inactive ([1]; sampling set 2, F2, fish tank 10, dose 12 ppb): 100% | % Inactive ([1]; sampling set 2, F2, fish tank 10, dose 20 ppb): 100% | survival of the bioassay ([2]; above 1 ppb, resistant strain): survived the bioassay | % Inactive ([2]; sampling set 1, F6, fish tank 05, dose 0.1 ppb): 0% | % Inactive ([2]; sampling set 1, F6, fish tank 05, dose 0.3 ppb): 0% | % Inactive ([2]; sampling set 1, F6, fish tank 05, dose 1 ppb): 12% | % Inactive ([2]; sampling set 1, F6, fish tank 05, dose 3 ppb): 27% | % Inactive ([2]; sampling set 1, F6, fish tank 05, dose 6 ppb): 35% | % Inactive ([2]; sampling set 1, F6, fish tank 05, dose 12 ppb): 41% | % Inactive ([2]; sampling set 1, F6, fish tank 09, dose 0.1 ppb): 4% | % Inactive ([2]; sampling set 1, F6, fish tank 09, dose 0.3 ppb): 0% | % Inactive ([2]; sampling set 1, F6, fish tank 09, dose 1 ppb): 10% | % Inactive ([2]; sampling set 1, F6, fish tank 09, dose 3 ppb): 19% | % Inactive ([2]; sampling set 1, F6, fish tank 09, dose 6 ppb): 23% | % Inactive ([2]; sampling set 1, F6, fish tank 09, dose 12 ppb): 28% | % Inactive ([2]; sampling set 2, F7, fish tank 08, dose 0.1 ppb): 0% | % Inactive ([2]; sampling set 2, F7, fish tank 08, dose 0.3 ppb): 0% | % Inactive ([2]; sampling set 2, F7, fish tank 08, dose 0.5 ppb): 0% | % Inactive ([2]; sampling set 2, F7, fish tank 08, dose 1 ppb): 0% | % Inactive ([2]; sampling set 2, F7, fish tank 08, dose 3 ppb): 6% | % Inactive ([2]; sampling set 2, F7, fish tank 08, dose 6 ppb): 18% | % Inactive ([2]; sampling set 2, F7, fish tank 08, dose 12 ppb): 0% | % Inactive ([2]; sampling set 2, F7, fish tank 08, dose 20 ppb): 39%
